Measurements: ChEMBL document CHEMBL1201862, “PubChem BioAssay data set” (2004)
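These data come from cells grown in 96-well plates and exposed to compound for 48 hours at five concentrations. At the GI50, growth is halved.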 Activity calls are given as the source filed them. Rule as the data show it: active = GI50 up to about 1.1 µM and inactive = higher.

Tests used:
Test in all cases: DTP human tumour cell line panel, 48 h
786-0 = system: 786-0
ACHN = system: ACHN
CCRF-CEM = system: CCRF-CEM
HT-29 = system: HT-29
K562 = system: K562
KM12 = system: KM12
LOX IMVI = system: LOX IMVI
OVCAR-3 = system: OVCAR-3
RXF 393 = system: RXF 393
SNB-19 = system: SNB-19
SW-620 = system: SW-620
TK-10 = system: TK-10
UACC-62 = system: UACC-62
UO-31 = system: UO-31
HCT-116 = system: HCT-116
MCF7 = system: MCF7
SN12C = system: SN12C
U-251 = system: U-251
DU-145 = system: DU-145

Measured: GI50

CCOC(=O)c1c2ccc(/C=C/c3ccccn3)ccc-2c(C(=O)OCC)c1N
inactive: 786-0 > 100 µM | ACHN 73.5 µM | CCRF-CEM > 100 µM | HT-29 > 100 µM | K562 > 100 µM | KM12 > 100 µM | LOX IMVI > 100 µM | OVCAR-3 > 100 µM | RXF 393 > 100 µM | SNB-19 > 100 µM | SW-620 > 100 µM | TK-10 > 100 µM | UACC-62 > 100 µM | UO-31 > 100 µM

CCOc1ccc(NC(=O)C(=O)C2C(=O)Nc3ccccc3[S+]2[O-])cc1 (stereo not drawn)
inactive: 786-0 > 100 µM | ACHN > 100 µM | CCRF-CEM > 100 µM | HCT-116 > 100 µM | HT-29 > 100 µM | KM12 > 100 µM | LOX IMVI > 100 µM | MCF7 > 100 µM | OVCAR-3 > 100 µM | RXF 393 > 100 µM | SN12C > 100 µM | SW-620 > 100 µM | TK-10 > 100 µM | U-251 > 100 µM | UACC-62 > 100 µM | UO-31 > 100 µM

NC1CC(=O)c2cscc21 (stereo not drawn)
inactive: 786-0 15.1 µM | CCRF-CEM 16.3 µM | DU-145 91.4 µM | HCT-116 67.5 µM | HT-29 > 100 µM | K562 42.1 µM | KM12 18.4 µM | LOX IMVI 31.8 µM | OVCAR-3 17.5 µM | RXF 393 > 100 µM | SN12C 27.6 µM | SNB-19 53.3 µM | SW-620 17.6 µM | TK-10 19.1 µM | U-251 > 100 µM | UO-31 10.3 µM

CCC12CCCN(Cc3ccccc3)C1c1c(n(C)c3ccccc13)CC2 (stereo not drawn)
inactive: 786-0 > 253 µM | ACHN 246 µM | CCRF-CEM 168 µM | HCT-116 141 µM | HT-29 167 µM | K562 163 µM | KM12 86.1 µM | LOX IMVI 236 µM | OVCAR-3 60.8 µM | RXF 393 97.3 µM | SN12C 149 µM | SNB-19 > 253 µM | SW-620 178 µM | TK-10 > 253 µM | U-251 247 µM | UACC-62 230 µM

C[C@@H](CO)C1=C(O)C(=O)c2c(ccc3c2CCCC3(C)C)C1=O
inactive: 786-0 55.3 µM | ACHN 18.5 µM | CCRF-CEM 3.33 µM | DU-145 47 µM | HCT-116 45.5 µM | HT-29 35.5 µM | K562 30.3 µM | KM12 37.2 µM | LOX IMVI 59.4 µM | OVCAR-3 28.2 µM | RXF 393 43.8 µM | SN12C 54.8 µM | SNB-19 25.7 µM | SW-620 28.3 µM | TK-10 45.4 µM | U-251 14.1 µM | UACC-62 23.2 µM | UO-31 33.3 µM

COc1ccc(C(=O)O)c(Cc2cccc3ccccc23)c1
inactive: 786-0 > 100 µM | ACHN > 100 µM | CCRF-CEM > 100 µM | HCT-116 > 100 µM | HT-29 > 100 µM | K562 81.8 µM | KM12 > 100 µM | LOX IMVI > 100 µM | OVCAR-3 64.3 µM | RXF 393 > 100 µM | SN12C > 100 µM | SNB-19 > 100 µM | SW-620 > 100 µM | TK-10 > 100 µM | U-251 > 100 µM | UACC-62 85.9 µM | UO-31 > 100 µM

CC(=O)Oc1c2c(c(OC(C)=O)c3c1n(C(C)=O)c1ccccc1n3C(C)=O)n(C(C)=O)c1ccccc1n2C(C)=O
inactive: 786-0 3.46 µM | ACHN 9.16 µM | CCRF-CEM 2.5 µM | HCT-116 1.95 µM | HT-29 3.18 µM | K562 2.86 µM | KM12 3.76 µM | LOX IMVI 2.56 µM | OVCAR-3 1.92 µM | RXF 393 8.38 µM | SN12C 3.27 µM | SNB-19 12.4 µM | SW-620 1.94 µM | U-251 10.9 µM | UACC-62 8.73 µM | UO-31 12.6 µM
